Data reported in PubChem BioAssay AID652132 (Broad Institute, 2013).

Tested on: Signal transducer and activator of transcription 1 (STAT1), rat
Test: STAT1 level and phosphorylation inhibition – cell-based, rat, cytokine stimulus, time course, mechanism study, late-stage follow-up (AID 652132)
Conditions: INS-1E cells, cytokine-induced STAT1/pSTAT1 western blot, at 10 µM, stronger effect = higher value

- p-STAT1 inhibition, 24 h: 65%
- inhibition (measured here: p-STAT1 inhibition 8 h): 97%
- inhibition (measured here: p-STAT1 inhibition 12 h): 80%
- inhibition (measured here: total STAT1 inhibition 8 h): 69%
- inhibition (measured here: total STAT1 inhibition 12 h): 53%
- inhibition (measured here: total STAT1 inhibition 24 h): 43%
Compound: C[C@@H]1CN([C@@H](C)CO)C(=O)c2cccc(NC(=O)Nc3cccc4ccccc34)c2O[C@H]1CN(C)S(=O)(=O)c1ccc2c(c1)OCCO2
